Laboratory results as given in patent US10837044B2, “Automated method for analyzing and interpreting an antimicrobial susceptibility” (FONDATION MEDITERRANEE INFECTION, priority 2014, dated 2020).

What was measured:
[1] = tested on: Klebsiella pneumoniae; test: antibiogram by diffusion on Mueller-Hinton agar with antibiotic wafers; format: cell-based; settings: Table C2, sixteen wafers, square dish
Experimental: (§1) The inoculum was prepared by making a suspension of bacteria directly from colonies put into solution in tubes of sterile water so that the solution presented accurate opacity as determined with a spectrophotometer equivalent to the opacity of a 0.5 standard in the McFarland range. This bacterial suspension concentration is standardized since a more concentrated inoculum would lead to smaller diameters for the inhibition zone, and vice versa.
(§2) The inoculum corresponds to concentrations of about 10^8 CFU/mL for Escherichia coli, Klebsiella pneumoniae, Proteus mirabilis, Klebsiella oxytoca, Enterobacter cloacea, Enterobacter aerogenes, Entercoccus faecalis, Pseudomonas aeruginosa, Staphylococcus aureus, and Staphylococcus epidermidis. These are the ten species bacteria that are encountered the most frequently in human pathologies.
(§3) 1.2) The bacterial sample was deposited on a solid culture medium in a petri dish having a diameter of 90 mm or in a square dish having a side of 120 mm, the medium being constituted by a Mueller-Hinton agar specific for (EUCAST) antibiograms. Ideally, it should be used in the 15 minutes (min) following preparation of the suspension.
(§4) Seeding was done by the method of diffusion on an agar medium by flooding in which excess bacterial suspension was added to the Mueller-Hinton agar. After homogenizing, excess liquid was discarded in order to avoid over-inoculating the dishes. It is necessary to wait beforehand for the surface of the agar to be dry in order to eliminate any trace of moisture encouraging bacterial invasion.
(§5) The disks of the antibiotic wafers were deposited within 15 min after inoculating the agar. The antibiotic impregnated disks were deposited using an automatic dispenser that placed the disks firmly on the surface of the inoculated and dried agar. The number of disks deposited per dish was limited because of inhibition zone overlap and in order to limit interference between antibiotics. It is important for the inhibition diameters to be measurable. The antibiograms were then incubated at 37° C. for 18 hours (h) to 24 h.
(§6) The antibiotic wafers were made of high quality absorbent paper with a diameter of 6 mm and they were impregnated with antibiotics at concentrations in the range 1 micrograms (μg) to 300 μg approximately, depending on the antibiotic.
(§7) In the examples below, reference disks were used as sold by the suppliers i2a (Montpellier, France), BD (Becton Dickinson, USA), Bio-Rad (Hercules, USA), Biomerieux (Marcy l′Etoile, France) containing the following antibiotics and carrying the following codes and the following doses: AMX (amoxicillin) 25 μg: AMC (amoxicillin-clavulanic acid) 20 μg-10 μg; GM for gentamicin, 15 μg; SXT (trimethoprim-sulfamethoxazole) 1.25/23.75 μg; TIC (ticarcillin) 75 μg; TCC (ticarcillin-clavulanic acid) […]; TZP (piperacillin-tazobactam) 75/10 μg; CAZ (ceftazidime) 30 μg; IMP or IPM (imipeneme) 10 μg; COL (colistin) 50 μg; FOX (cefoxitine) 30 μg; VAN (vancomycin) 30 μg; TEC (teicoplanin) 30 μg; CLI or DA (clindamycin) 2 μg; CRO (ceftriaxone) 30 μg; CIP (ciprofloxacin) 5 μg; OFX (ofloxacin) 5 μg; CTX (cefotaxime) 5 μg; AN or AK (amikacin) 30 μg; TM (tobramycin) 10 μg; FOX (cefoxitine) 30 μg; ATM (aztreonam) 30 μg; ERT (ertapenem) 10 μg; FF (fosfomycin) 200 μg; DO (doxycycline) 30 μg; K (kanamycin) 1000 μg; L (lincomycin) 15 μs; LNZ (linezolid) 10 μg; AN (nalidixic acid) 30 μg; NOR (norfloxacin) 10 μg; PT (pristinamycin) 15 μg; RA (rifampicin) 5 μg; and E (erythromycin) 15 μg.

[2] = tested on: Escherichia coli; test: as above; format: cell-based; settings: Table C2, square dish
Experimental: as §1, §2, §3, §4, §5, §6, §7

[3] = tested on: Escherichia coli; settings: cited from earlier work; for Critical diameters (mm) R> / Critical diameters (mm) S≤: disk load 10 μg, inhibition zone diameter; for Critical diameters (mm) R> / Critical concentrations (mg/L) R>: resistant; for Critical diameters (mm) S≤ / Critical concentrations (mg/L) S≤: sensitive; for Critical concentrations (mg/L) R>: high critical concentration; for Critical concentrations (mg/L) S≤: low critical concentration
[4] = tested on: Pseudomonas aeruginosa; test: antibiogram by diffusion on Mueller-Hinton agar with antibiotic wafers; format: cell-based; settings: Table C1, six wafers, disk loads of Table B
Experimental: as §1, §2, §3, §4, §5, §6, §7

[5] = tested on: Staphylococcus aureus; test: as above; format: cell-based; settings: Table C2, sixteen wafers, square dish
Experimental: as §1, §2, §3, §4, §5, §6, §7

[6] = tested on: Entercoccus faecalis; test: as above; format: cell-based; settings: Table C1, six wafers, disk loads of Table B
Experimental: as §1, §2, §3, §4, §5, §6, §7

[7] = K. pneumoniae phenotype Cephalosporinase + R to aminosides + R to cotrimoxazole
[8] = E. coli phenotype Cephalosporinase + R to fluoroquinolones + R to cotrimoxazole + partial R to aminosides, sixteen wafers
[9] = E. coli phenotype Hl penicillinase + R to fluoroquinolones + R to cotrimoxazole + partial R to aminosides, sixteen wafers
[10] = E. coli phenotype Wild, sixteen wafers in a rectangular grid
[11] = P. aeruginosa Abnormal phenotype
[12] = P. aeruginosa phenotype Carbapenemase
[13] = P. aeruginosa phenotype Penicillinase
[14] = P. aeruginosa phenotype Selective imipenem permeability
[15] = S. aureus phenotype R to methicilline, R to aminosides, fluoroquinolones, to rifampicie, to macrolides and the like

| Molecule | resistant (I/R) or sensitive (S) [1, 7] | resistant (I/R) or sensitive (S) ([1]; K. pneumoniae phenotype Wild) | resistant (I/R) or sensitive (S) [2, 8] | resistant (I/R) or sensitive (S) [2, 9] | resistant (I/R) or sensitive (S) [2, 10] | resistant (I/R) or sensitive (S) [5, 15] | resistant (I/R) or sensitive (S) ([5]; S. aureus phenotype Wild) | also measured |
| --- | --- | --- | --- | --- | --- | --- | --- | --- |
| NCC[C@H](O)C(=O)N[C@@H]1C[C@H](N)[C@@H](O[C@H]2O[C@H](CN)[C@@H](O)[C@H](O)[C@H]2O)[C@H](O)[C@H]1O[C@H]1O[C@H](CO)[C@@H](O)[C@H](N)[C@H]1O [AK, amikacin] | S | R | S | S | S |  |  |  |
| CO/N=C(\C(=O)N[C@@H]1C(=O)N2C(C(=O)O)=C(COC(C)=O)CS[C@H]12)c1csc(N)n1 [CTX, cefotaxime] | R | R | R | S | S |  |  |  |
| C[C@@H](O)[C@H]1C(=O)N2C(C(=O)O)=C(S[C@@H]3CN[C@H](C(=O)Nc4cccc(C(=O)O)c4)C3)[C@H](C)[C@H]12 [Ertapenem] |  |  |  |  |  |  |  | Critical diameters (mm) R> [3]: 22 mm; Critical diameters (mm) S≤ [3]: 25 mm; Critical concentrations (mg/L) R> [3]: 1 mg/L; Critical concentrations (mg/L) S≤ [3]: 0.5 mg/L |
| CC(C)(O/N=C(\C(=O)N[C@@H]1C(=O)N2C(C(=O)[O-])=C(C[n+]3ccccc3)CS[C@H]12)c1csc(N)n1)C(=O)O [CAZ, ceftazidime] |  |  |  |  |  |  |  | resistance (I, R) or sensitivity (S) [4, 11]: S; resistance (I, R) or sensitivity (S) ([4]; P. aeruginosa phenotype BSBL): R; resistance (I, R) or sensitivity (S) [4, 12]: R; resistance (I, R) or sensitivity (S) [4, 13]: S; resistance (I, R) or sensitivity (S) [4, 14]: S; resistance (I, R) or sensitivity (S) ([4]; P. aeruginosa phenotype Wild): S |
| O=C1CN(/N=C/c2ccc([N+](=O)[O-])o2)C(=O)N1 [FUR, nitrofurantoin] |  |  |  |  |  | R | S | resistance (I, R) or sensitivity (S) ([6]; E. faecalis phenotype Atypical): S; resistance (I, R) or sensitivity (S) ([6]; E. faecalis phenotype Wild): S |
| CC1COc2c(N3CCN(C)CC3)c(F)cc3c(=O)c(C(=O)O)cn1c23 (centres unmarked) [OFX, ofloxacin] | R | S | R | R | S |  |  |  |
| C[C@@H](O)[C@H]1C(=O)N2C(C(=O)O)=C(S[C@@H]3CN[C@H](CNS(N)(=O)=O)C3)[C@H](C)[C@H]12 [Doripenem] |  |  |  |  |  |  |  | Critical diameters (mm) R> [3]: 21 mm; Critical diameters (mm) S≤ [3]: 24 mm; Critical concentrations (mg/L) R> [3]: 2 mg/L; Critical concentrations (mg/L) S≤ [3]: 1 mg/L |
| O=C(O)c1cn(C2CC2)c2cc(N3CCNCC3)c(F)cc2c1=O [CIP, ciprofloxacin] | R | S | R | R | S | R | S |  |
| C[C@H]1c2cccc(O)c2C(=O)C2=C(O)[C@]3(O)C(=O)C(C(N)=O)=C(O)[C@@H](N(C)C)[C@@H]3[C@@H](O)[C@@H]21 [DO, doxycycline] |  |  |  |  |  | R | S |  |
| pristinamycin [PT] |  |  |  |  |  | R | S |  |
| C[C@@H]1O[C@@H]1P(=O)(O)O [FF, fosfomycin] |  |  |  |  |  | R | S |  |
| CC[C@H]1OC(=O)[C@H](C)[C@@H](O[C@H]2C[C@@](C)(OC)[C@@H](O)[C@H](C)O2)[C@H](C)[C@@H](O[C@@H]2O[C@H](C)C[C@H](N(C)C)[C@H]2O)[C@](C)(O)C[C@@H](C)C(=O)[C@H](C)[C@@H](O)[C@]1(C)O [E, erythromycin] |  |  |  |  |  | R | S |  |
| C[C@@H](O)[C@H]1C(=O)N2C(C(=O)O)=C(S[C@@H]3CN[C@H](C(=O)N(C)C)C3)[C@H](C)[C@H]12 [Meopenem] |  |  |  |  |  |  |  | Critical diameters (mm) R> [3]: 16 mm; Critical diameters (mm) S≤ [3]: 22 mm; Critical concentrations (mg/L) R> [3]: 8 mg/L; Critical concentrations (mg/L) S≤ [3]: 2 mg/L |
| CCC[C@@H]1C[C@@H](C(=O)N[C@@H]([C@H]2O[C@H](SC)[C@H](O)[C@@H](O)[C@H]2O)[C@@H](C)O)N(C)C1 [LIN, lincomycin] |  |  |  |  |  |  |  | resistance (I, R) or sensitivity (S) ([6]; E. faecalis phenotype Atypical): S; resistance (I, R) or sensitivity (S) ([6]; E. faecalis phenotype Wild): S |
| NC[C@H]1O[C@H](O[C@H]2[C@H](O)[C@@H](O[C@H]3O[C@H](CO)[C@@H](O)[C@H](N)[C@H]3O)[C@H](N)C[C@@H]2N)[C@H](N)C[C@@H]1O [TOB, tobramycin] | R | R | R | R | S | R | S |  |
| C[C@H]1[C@H](NC(=O)/C(=N\OC(C)(C)C(=O)O)c2csc(N)n2)C(=O)N1S(=O)(=O)O [ATM, aztreonam] | R | R | R | S | S |  |  |  |
| CC(=O)NC[C@H]1CN(c2ccc(N3CCOCC3)c(F)c2)C(=O)O1 [LNZ, linezolid] |  |  |  |  |  | S | S |  |
| Cc1onc(-c2ccccc2)c1C(=O)N[C@@H]1C(=O)N2[C@@H]1SC(C)(C)[C@@H]2C(=O)O [OXA, oxacillin] |  |  |  |  |  | R | S |  |
| CO[C@H]1/C=C/O[C@@]2(C)Oc3c(C)c(O)c4c(O)c(c(/C=N/N5CCN(C)CC5)c(O)c4c3C2=O)NC(=O)/C(C)=C\C=C\[C@H](C)[C@H](O)[C@@H](C)[C@@H](O)[C@@H](C)[C@H](OC(C)=O)[C@@H]1C [RA, rifampicin] |  |  |  |  |  | R | S |  |
| CC1(C)S[C@@H]2[C@H](NC(=O)[C@H](C(=O)O)c3ccsc3)C(=O)N2[C@H]1C(=O)O [TIC, ticarcillin] | R | R | R | R | S |  |  | resistance (I, R) or sensitivity (S) [4, 11]: R; resistance (I, R) or sensitivity (S) ([4]; P. aeruginosa phenotype BSBL): I/R; resistance (I, R) or sensitivity (S) [4, 12]: R; resistance (I, R) or sensitivity (S) [4, 13]: R; resistance (I, R) or sensitivity (S) [4, 14]: S; resistance (I, R) or sensitivity (S) ([4]; P. aeruginosa phenotype Wild): S |
